Reference: US7696243B2, “Pyrrolidin-2-one derivatives for use as DP1 receptor agonists” (Merck Serono, S.A., priority 2004, dated 2010)
“Also recorded” adds a separate entry of the source.

What was measured:
h-DP1 [1] = target: T1, h-DP1 (Homo sapiens, UniProt Q13258); test: Whole cell second messenger (cAMP) assay on cells expressing DP1; type: cell-based
T1 construct: expressed in transfected cells; host or cells: HEK293-EBNA
T1 sequence (Q13258 1-359): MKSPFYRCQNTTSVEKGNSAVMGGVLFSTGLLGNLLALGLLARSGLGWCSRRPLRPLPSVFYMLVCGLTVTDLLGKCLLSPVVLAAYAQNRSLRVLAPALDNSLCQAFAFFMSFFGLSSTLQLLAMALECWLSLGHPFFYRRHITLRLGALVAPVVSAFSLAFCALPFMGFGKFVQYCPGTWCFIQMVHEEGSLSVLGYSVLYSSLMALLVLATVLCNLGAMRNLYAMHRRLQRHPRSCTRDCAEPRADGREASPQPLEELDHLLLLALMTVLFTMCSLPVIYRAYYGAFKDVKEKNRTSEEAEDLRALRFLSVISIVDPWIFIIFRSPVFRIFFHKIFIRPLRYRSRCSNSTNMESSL
Procedure: Whole cell second messenger assays measuring stimulation (EP2, EP4, DP1, DP2 and IP in HEK 293(ebna) cells) or inhibition (EP3 in human erythroleukemia (HEL) cells) of intracellular cAMP accumulation or mobilization of intracellular calcium (EP1, FP and TP in HEK 293(ebna) cells stably transfected with apo-aequorin) are performed to determine whether receptor ligands are agonists or antagonists. For cAMP assays, cells are harvested and resuspended in HBSS containing 25 mM HEPES, pH 7.4. Incubations contain 100 μM RO-20174 (phosphodiesterase type IV inhibitor, available from Biomol) and, in the case of the EP3 inhibition assay only, 15 μM forskolin to stimulate cAMP production.
Samples are incubated at 37° C. for 10 min, the reaction is terminated and cAMP levels are then measured. For calcium mobilization assays, cells are charged with the co-factors reduced glutathione and coelenterazine, harvested and resuspended in Ham's F12 medium. Calcium mobilization is measured by monitoring luminescence provoked by calcium binding to the intracellular photoprotein aequorin. Ligands are added in dimethylsulfoxide which is kept constant at 1% (v/v) in all incubations.
For agonists, second messenger responses are expressed as a function of ligand concentration and both EC50 values and the maximum response as compared to a prostanoid standard are calculated. For antagonists, the ability of a ligand to inhibit an agonist response is determined by Schild analysis and both KB and slope values are calculated.
In another exemplary protocol, HEK293-EBNA cells transfected with the appropriate receptors are seeded in 96 well opaque plate (Costar #3917) at 4×10^4 cells per well in 100 μl of culture medium (D-MEM/F12 supplemented with 10% FBS, […] L-glutamine, and 250 μg/ml of hygromycin; all from GibcoBRL) and incubated at 37° C. After overnight incubation, the medium was removed from each well and replaced with 45 μl of assay medium consisted of phenol red free D-MEM/F-12, 0.1% BSA (GibcoBRL) and 0.1 mM 3 isobutyl-1-methyl-xanthine (Sigma). After 15 minutes of incubation at 37° C., 16-16-dimethyl PGE-2 or compounds at desired concentrations in 20 μl of assay medium were added to cells and further incubated at 37° C. for 1 hour. Total cAMP (intra- and extracellular) was measured by using a cAMP-screen ELISA System (Tropix #CS1000).

h-DP2 = target: T2, h-DP2 (Homo sapiens, UniProt Q9Y5Y4); test: Prostanoid receptor binding assay, DP2; settings: n = 2
T2 construct: expressed in transfected cells; host or cells: HEK 293(ebna) cells or other stably transfected cells; membranes
T2 sequence (Q9Y5Y4 1-395): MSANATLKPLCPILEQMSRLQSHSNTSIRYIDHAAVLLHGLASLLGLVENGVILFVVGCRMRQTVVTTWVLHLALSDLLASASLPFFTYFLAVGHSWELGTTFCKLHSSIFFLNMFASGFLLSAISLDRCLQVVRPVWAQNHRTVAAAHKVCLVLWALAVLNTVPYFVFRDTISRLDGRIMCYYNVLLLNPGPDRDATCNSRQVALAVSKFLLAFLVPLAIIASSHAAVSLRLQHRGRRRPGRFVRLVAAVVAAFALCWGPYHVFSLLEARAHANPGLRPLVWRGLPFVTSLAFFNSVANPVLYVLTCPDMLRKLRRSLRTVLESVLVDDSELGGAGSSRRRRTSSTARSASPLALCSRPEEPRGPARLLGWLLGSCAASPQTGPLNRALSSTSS
Procedure: (§1) HEK 293(ebna) cells or other cells stably transfected with the appropriate receptor are maintained in culture, harvested and membranes are prepared by differential centrifugation, following lysis of the cells in the presence of protease inhibitors, for use in receptor binding assays.
(§2) Prostanoid receptor binding assays are performed in 10 mM MES/KOH (pH 6.0) (EPs, FP and TP) or 10 mM HEPES/KOH (pH 7.4) (DP and IP), containing 1 mM EDTA, 10 mM divalent cation and the appropriate radioligand for the given receptor. The reaction is initiated by addition of membrane protein. Typically, the ligands are added in a solvent such as dimethylsulfoxide which is kept constant at 1% (v/v) in all incubations. Non-specific binding is determined in the presence of 1 μM of the corresponding non-radioactive prostanoid. Incubations are conducted for 60 min at room temperature or 30° C. and terminated by rapid filtration. Specific binding is calculated by subtracting non-specific binding from total binding. The residual specific binding at each ligand concentration is calculated and expressed as a function of ligand concentration in order to construct sigmoidal concentration-response curves for determination of ligand affinity.
(§3) In another protocol, compounds of the invention are tested in DP1 receptor binding assay of the following protocol. A mixture containing 20 μg of DP1 receptor membranes, 0.5 mg of wheat germ agglutinin coated PVT-SPA beads, plus or minus a test compound of the invention (25 μl per well) or 10 μM of cold PGE2 at 1% DMSO and 20 nM radiolabeled ligand for the receptor (e.g., tritiated-PGE2) in assay buffer containing 25 mM MES, 10 mM MgCl2, 1 mM EDTA, pH 6.0 are incubated in Corning 3600 plates on a plate shaker for 2 hrs at room temperature. Binding of the radiolabeled ligand binding is evaluated by counting the plates on the top count using the 3H SPA dpm2 program. % Binding and Ki value for inhibitors are calculated based on the one site competition parameter using the Graphpad® prism program. Such an assay may be modified by employing the different receptors and their specific ligands to assess the activity of the compounds of the present invention against such receptors. Using such an assay, the DP1 Ki values for a number of exemplary compounds of the present invention were calculated and are shown in Table 1.

h-DP1 [2] = target: T1, h-DP1; test: DP1 receptor binding assay (SPA, receptor membranes)
Procedure: as §1, §2, §3

rabbits = test: In vivo intracavernosal injection, erectile response (ICP/SAP); settings: rabbit
Procedure: DP agonists were solubilized in 40% propylene glycol and administered by intracavernosal injection to deliver the indicated dose in 0.1 ml total volume. Since penile intracavernosal pressure (ICP) is ultimately limited by the systemic arterial pressure (SAP), all erectile responses were normalized by calculating the ration of ICP/SAP.

[3] = system: human penile cavernosal tissue strips; test: Organ bath: relaxation of human penile cavernosal tissue strips after contraction with phenylephrine
Procedure: Human tissue procurement. Cavernosal tissue is obtained from patients undergoing penile prosthesis implantation surgery for treatment of erectile dysfunction. In the operating room, biopsies of the corpora cavernosa are immediately placed in chilled (4° C.) physiologic salt solution and transported to the laboratory. Tissue strips, measuring approximately 3 mm×3 mm×10 mm, are cut and prepared for organ bath studies.
Preparation of compound stock solutions and dose responses. PGE1 (Cayman Chemical Co., Ann Arbor, Mich.) is stored at −20° C. in solid form until the day of use. Stock solutions are made by adding 1 ml of 70% DMSO to a vial containing 1 mg of PGE1. Compounds of the invention are dissolved in 1 ml of 70% DMSO, divided into 100 μl aliquots and stored at −20° C. until use. For dose responses in organ baths, stock solutions of PGE1 and compounds of the invention are diluted with 70% DMSO to make the highest concentration and then serially diluted with 2% DMSO for all other doses. In a typical dose response curve, the concentration of DMSO is checked to remain below […] in the 25 ml bath and to not exceed 0.5% at the highest dose.
Organ bath studies. Human or rabbit cavernosal tissue strips are mounted onto a fixed support with silk ties and attached to a tension transducer (model FT03; GrassTelefactor, Astro-Med, Inc. West Warwick, R.I.) with a rigid metal wire. After mounting, tissue strips are immersed in 25 ml baths of physiologic salt solution (PSS; 118.3 mM NaCl, 4.7 mM KCl, 0.6 mMMgSO4, 1.2 mMKH2PO4, 2.5 mMCaCl2, 25 mMNaHCO3, 0.026 mM CaNa2EDTA, 11.1 mM glucose). The solution is gassed with 95% […]/5% CO2 to attain a pH of 7.4 and the temperature is maintained at 37° C. All tissue strips are treated with 3 μM indomethacin to inhibit endogenous prostanoid production and minimize spontaneous contractile activity. The corpus cavernosum tissue is stretched incrementally and the optimal resting isometric tension for contraction is determined. After every 3-4 stretches (1 g tension/stretch), the tissue is contracted with 1 μM phenylephrine. When the amplitude of the phenylephrine-induced contraction is within 10% of the previous contraction, that tension is considered optimal for isometric contraction. All tissue strips are extensively washed with fresh PSS. Tissue strips are then contracted with 1 μM phenylephrine. After stable tone is achieved, tissue strips are exposed to increasing concentrations of PGE1 or compounds of the invention.
Data analysis. At the end of each experiment, all tissue strips are treated with 10 μM papaverine and 10 μM nitroprusside to induce maximal relaxation (100%). The total amount of relaxatory response over the range of drug concentrations tested is determined by the area under the plotted curves. EC50 values are calculated using Prism software (GraphPad, San Diego, Calif.). For final analysis of data, relaxation parameters are compared using ANOVA. If the ANOVA p-value is less than 0.05, paired post-test comparisons is carried out using the Tukey-Kramer test.

[4] = after contraction with phenylephrine

SMILES	EC50 (h-DP1 [1]) [nM]	Ki (h-DP2) [nM]	Ki (h-DP1 [2]) [nM]	EC50 [3, 4] [nM]	other results
O=C(O)c1ccc(CCC[C@H]2CCC(=O)N2CC[C@H](O)C2CCCCC2)cc1 [Example 2, 4-(3-(2S)-1-[(3S)-3-cyclohexyl-3-hydroxypropyl]-5-oxotetrahydro-1H-2-pyrrolylpropyl)benzoic acid]	0.71	> 10000	10.5	–	–
O=C(O)CCCCCC[C@H]1CCC(=O)N1CCC(O)C1CCCCC1 (stereo in doubt) [Example 4, 7-{(2S)-1-[(3R)-3-cyclohexyl-3-hydroxypropyl]-5-oxopyrrolidin-2-yl}heptanoic acid]	1.38	> 10000	47.2	–	–
O=C(O)c1ccc(CCC[C@H]2CCC(=O)N2CC[C@@H](O)C2CCCCC2)cc1 [Example 1, 4-(3-(2S)-1-[(3R)-3-cyclohexyl-3-hydroxypropyl]-5-oxotetrahydro-1H-2-pyrrolylpropyl)benzoic acid]	–	> 10000	2.4	–	Systemic blood pressure (rabbits; any dose): no overt changes; Arterial pressure (rabbits; intracavernosal): remained constant; Duration of transient episodes of penile tumescence (rabbits; intracavernosal): 1 to 3 min; ICP/SAP (peak response or AUC) compared to vehicle (rabbits; intracavernosal): dose-dependant increases; Penile response at highest dose (rabbits; intracavernosal, 5 μg, single animals): repeated and transient episodes of spontaneous penile tumescence; also recorded: penile resistance arteries were fully dilated; Penile tumescence after intracavernosal injection (rabbits; intracavernosal, 40% propylene glycol): sustained periods of penile tumescence or transient episodes; EC50 ([3]; Homo sapiens, after contraction with phenylephrine): 29 nM; Relaxation of human penile cavernosal tissue strips (in words) [3, 4]: dose-dependent relaxation; Extent of relaxation (maximal effect) versus BW245C ([3]; human cavernosal tissue): greater
O=C(O)CCCCCC[C@H]1CCC(=O)N1CC[C@@H](O)C1CCCCC1 [Example 3, 7-{(2S)-1-[(3R)-3-cyclohexyl-3-hydroxypropyl]-5-oxopyrrolidin-2-yl}heptanoic acid]	0.037	> 10000	1.8	–	–
O=C(O)CCCCCCC1C(=O)NC(=O)N1CCC(O)C1CCCCC1 (stereo not shown) [BW245C, reference compound]	0.031	–	–	59	–

Further lines, with some results ahead:

EC50 (h-DP1 [1]) [nM]	Ki (h-DP2) [nM]	Ki (h-DP1 [2]) [nM]	EC50 [3, 4] [nM]	SMILES	other results
0.3	–	4.1	0.3	CCCCC[C@H](O)/C=C/[C@H]1C(=O)C[C@H](O)[C@@H]1C/C=C\CCCC(=O)O [PGD2]	Effect at concentrations higher than 0.3 μM ([3]; human cavernosal tissue): caused contraction; Concentration through which dose-dependent relaxation was seen ([3]; human cavernosal tissue, contraction at higher concentration): ≤ 0.3 µM
–	–	–	210	CCCCC[C@H](O)/C=C/[C@H]1[C@H](O)CC(=O)[C@@H]1CCCCCCC(=O)O [PGE1]	–
